In one data set the test system is STAT3 protein. Put plainly: Western blotting of separated liver tissue treated with laminin. It is filed as cell-based, mouse. The following applies: FIG. 26B. As to the method:
Particularly, a lysis buffer [50 mM Tris-HCl (pH 7.4), 1% NP40, 0.25% sodium dioxycholate, 150 mM NaCl, 1 mM EDTA], SDS (sodium dodecyl sulfate), Na3O4V and protease inhibitor cocktail (GenDepot) were added to the obtained liver tissue, which was left at 4° C. for 15 minutes to lyse the tissue. The lysate was centrifuged for 30 minutes under the conditions of 13,000 rpm and 4° C. to obtain a supernatant. The proteins present in the supernatant were quantified using BCA reagent (Thermo Scientifics). 4× sample buffer [4 ml of 100% glycerol, 2.4 ml of Tris-HCl (pH 6.8), 0.8 g of SDS, 4 mg of brominated phenol blue, 0.4 ml of β-mercaptoethanol and 3.1 ml of H2O, final volume: 10 ml] was added thereto, which was boiled at 100° C. for 5 minutes. SDS-PAGE was performed, and the proteins were transferred to a nitrocellulose membrane (Whatman). The membrane was pretreated in a solution containing 5% skim milk for 1 hour, and reacted with the antibodies against laminin (Abcam, UK), ACC1 (Cell Signalling, USA), SREBP1 precursor (Santa cruz, USA), mature SREBP1 (Santa cruz, USA), MTP (Santa cruz, USA), PPARα (Santa cruz, USA), pY^706STAT3 (Millipore, USA), STAT3 (Santa cruz, USA), α-tubulin (Sigma, USA) and TM4SF5 (J Clin Invest. 2008 April; 118(4): 1354-66) as the primary antibodies at 4° C. for 15 hours. […]
(In general: In western blotting, separated proteins are transferred to a membrane and probed.)

The next data set has as its system TM4SF5 gene. Put plainly: TM4SF5 shRNA in differentiated 3T3-L1 adipocytes (oil red O staining, real-time PCR). The class given is cell-based, mouse. As to the method:
To confirm whether the fat production was suppressed when the expression of TM4SF5 protein was suppressed in adipocytes, oil red O staining was performed.
First, mouse 3T3-L1 adipocyte progenitor cells were prepared by culturing in DMEM supplemented with 10% NBCS (Gibco, 16010159) and 1% penicillin/streptomycin. The prepared cells were distributed in a 6-well plate at the density of 1×10^5/well.
After 4 days of the distribution, when the progenitor cells were full in the wells, the cells were further cultured for 48 hours. Then, the medium was replaced with the adipocyte differentiation medium (MDI medium containing 10% FBS) supplemented with 1 μM dexamethasone, 0.5 mM IBMX (3-Isobutyl-1-methylxanthine) and 10 μg/m ? of insulin (Sigma, USA). After culturing the cells for 2 days, the medium was replaced with DMEM supplemented with 10% FBS and 10 μg/m ? of insulin. After replacing with the medium, the cells were cultured for 10 days, and then cultured using DMEM supplemented with 10% FBS and 1% penicillin/streptomycin to obtain differentiated adipocytes. The adipocytes were transfected with TM4SF5 shRNA (shTM4SF5, 5′-[…]-3′, SEQ. ID. NO: 35) using lipofectamine 3000.
Whether the expression of the fat-related gene changed when the expression of TM4SF5 gene was suppressed was confirmed by the following method. […]
(In general: Quantitative PCR measures a nucleic acid by following its amplification.)

Another data set relates to TM4SF5 protein. Description: shTM4SF5 in hepatocytes of the liver disease model mouse, Western blotting. It is filed as cell-based. The following applies: FIG. 25. An excerpt: First, hepatocytes were obtained from the isolated liver tissue as described above. The expressions of TM4SF5 and STAT3 proteins in the obtained hepatocytes were suppressed by transfecting the cells with shTM4SF5 or silencing STAT3 [On-Target plus SMART pool siRNA (Thermo)], and then the expression changes of laminin were confirmed by Western blotting as described above.

Regarding laminin, the “expression level of STAT3 protein” value in the data set with STAT3 protein is recorded as “not changed”.

For the substance “shTM4SF5: TM4SF5 shRNA, 5′-CCTGGAATGTGACGCTCTTCTCGCTGCTG-3′, SEQ. ID. NO: 35 (listed as DNA, chemistry not fully specified)”, the “production of fat, oil red O staining” value with TM4SF5 gene (FIG. 6A) is given as “inhibited”. Also, the “expressions of Pparγ, CD36, Fasn, Srebp1 and Fabp1 genes” value with TM4SF5 gene (FIG. 6B) is recorded as “suppressed”. The “expression of laminin protein” value with TM4SF5 protein is recorded as “suppressed”.

The values are drawn from US20210190799A1, “METHOD FOR DIAGNOSING LIVER DISEASES AND METHOD FOR SCREENING THERAPEUTIC AGENT FOR LIVER DISEASES USING CHANGES IN EXPRESSION OF TM4SF5 PROTEIN” (SEOUL NATIONAL UNIVERSITY R&DB FOUNDATION, priority 2017, published 2021).
